Measured values as given in patent US8741589B2, “Monitoring two dimensions of diabetes pathogenesis” (The Regents of the University of California, priority 2005, dated 2014).

Experiments:
[1] = tested on: models of insulin resistance; assay: Deuterated water production from deuterated glucose in models of insulin resistance, response to insulin-sensitizing therapies; type: in vivo; conditions: response to administration of insulin-sensitizing therapies in models of insulin resistance
Text: Accordingly, the maintenance of normal absolute heavy water production in the face of insulin resistance was highly informative—“normal” heavy water production in this setting represented sufficiency (adequacy) of the pancreatic beta-cell response to the insulin resistance present. […] Full characterization of DM2 susceptibility and progression is thereby enabled through a simple, easily performed and widely usable test.

pre-diabetes = conditions: metformin therapy, background statement; cited from earlier work

Question: For `CN(C)C(=N)N=C(N)N` [metformin], which deuterated water production [1] is on record?
Answer: Its deuterated water production is “increased”.

Question: What about the pancreatic insulin secretion (pre-diabetes) of the same molecule?
Answer: The pancreatic insulin secretion was “improve pancreatic insulin secretion”.

Question: What about the “progression to DM2” value (pre-diabetes) of the same molecule?
Answer: The value was “prevent progression to DM2”.
